Results on 1 molecule are retold here after patent publication US11311624B2, “Inhibitors of MEK/PI3K, JAK/MEK, JAK/PI3K/mTOR and MEK/PI3K/mTOR biological pathways and methods for improving lymphatic uptake, bioavailability, and solubility of therapeutic compounds” (THE REGENTS OF THE UNIVERSITY OF MICHIGAN, priority 2017, dated 2022).

Common to all, as to type: biochemical
One test deals with PI3Kα (Homo sapiens, UniProt P42336). In words: In vitro inhibition of PI3Kα. As to conditions: Table 10B, inhibitory activity, unit inferred; read-out: PI3Kα.
The target of another test is PI3Kβ (Homo sapiens, UniProt P42338). In words: In vitro inhibition of PI3Kβ. The settings on record: Table 10B, inhibitory activity, unit inferred; read-out: PI3Kβ.
For another test, the target named is PI3Kγ (Homo sapiens, UniProt P48736). In words: In vitro inhibition of PI3Kγ. The settings on record: Table 10B, inhibitory activity, unit inferred; read-out: PI3Kγ.
Another test has as its target PI3Kδ (Homo sapiens, UniProt O00329). Briefly: In vitro inhibition of PI3Kδ. As to conditions: Table 10B, inhibitory activity, unit inferred; read-out: PI3Kδ.
For the next test, the target named is mTOR (Homo sapiens, UniProt P42345). In words: In vitro inhibition of mTOR. The settings on record: Table 10B, inhibitory activity, unit inferred.

Molecules are shown by their SMILES.

Sequence of PI3Kδ (O00329 whole entry, species assumed): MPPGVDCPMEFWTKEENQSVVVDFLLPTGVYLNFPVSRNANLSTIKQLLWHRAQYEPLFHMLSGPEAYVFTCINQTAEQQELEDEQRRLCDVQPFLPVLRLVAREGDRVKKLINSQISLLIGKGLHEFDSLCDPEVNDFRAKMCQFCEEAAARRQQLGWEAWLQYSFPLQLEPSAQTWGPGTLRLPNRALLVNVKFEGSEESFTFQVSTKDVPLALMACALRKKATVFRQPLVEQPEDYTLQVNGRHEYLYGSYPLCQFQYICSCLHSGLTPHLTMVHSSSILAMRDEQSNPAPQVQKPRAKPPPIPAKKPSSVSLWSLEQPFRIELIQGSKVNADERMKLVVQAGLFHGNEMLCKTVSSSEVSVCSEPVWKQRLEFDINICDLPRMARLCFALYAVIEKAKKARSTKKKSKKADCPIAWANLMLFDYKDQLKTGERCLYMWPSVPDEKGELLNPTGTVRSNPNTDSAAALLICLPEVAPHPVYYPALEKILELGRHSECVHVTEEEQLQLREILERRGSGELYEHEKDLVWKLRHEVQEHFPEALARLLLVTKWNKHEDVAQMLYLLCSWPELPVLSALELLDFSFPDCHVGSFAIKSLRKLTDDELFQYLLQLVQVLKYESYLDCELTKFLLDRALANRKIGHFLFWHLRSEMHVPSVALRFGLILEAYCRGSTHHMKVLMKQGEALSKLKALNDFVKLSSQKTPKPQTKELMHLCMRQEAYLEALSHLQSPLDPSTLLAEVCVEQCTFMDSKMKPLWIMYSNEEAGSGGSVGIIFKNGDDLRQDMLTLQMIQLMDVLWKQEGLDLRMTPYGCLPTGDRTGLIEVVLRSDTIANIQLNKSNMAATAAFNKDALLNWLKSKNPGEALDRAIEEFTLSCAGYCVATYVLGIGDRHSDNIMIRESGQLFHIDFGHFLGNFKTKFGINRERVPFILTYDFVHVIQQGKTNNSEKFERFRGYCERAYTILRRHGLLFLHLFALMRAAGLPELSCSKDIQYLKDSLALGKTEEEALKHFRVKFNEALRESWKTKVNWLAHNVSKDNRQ
Sequence of PI3Kδ (P27986 whole entry partner, species assumed): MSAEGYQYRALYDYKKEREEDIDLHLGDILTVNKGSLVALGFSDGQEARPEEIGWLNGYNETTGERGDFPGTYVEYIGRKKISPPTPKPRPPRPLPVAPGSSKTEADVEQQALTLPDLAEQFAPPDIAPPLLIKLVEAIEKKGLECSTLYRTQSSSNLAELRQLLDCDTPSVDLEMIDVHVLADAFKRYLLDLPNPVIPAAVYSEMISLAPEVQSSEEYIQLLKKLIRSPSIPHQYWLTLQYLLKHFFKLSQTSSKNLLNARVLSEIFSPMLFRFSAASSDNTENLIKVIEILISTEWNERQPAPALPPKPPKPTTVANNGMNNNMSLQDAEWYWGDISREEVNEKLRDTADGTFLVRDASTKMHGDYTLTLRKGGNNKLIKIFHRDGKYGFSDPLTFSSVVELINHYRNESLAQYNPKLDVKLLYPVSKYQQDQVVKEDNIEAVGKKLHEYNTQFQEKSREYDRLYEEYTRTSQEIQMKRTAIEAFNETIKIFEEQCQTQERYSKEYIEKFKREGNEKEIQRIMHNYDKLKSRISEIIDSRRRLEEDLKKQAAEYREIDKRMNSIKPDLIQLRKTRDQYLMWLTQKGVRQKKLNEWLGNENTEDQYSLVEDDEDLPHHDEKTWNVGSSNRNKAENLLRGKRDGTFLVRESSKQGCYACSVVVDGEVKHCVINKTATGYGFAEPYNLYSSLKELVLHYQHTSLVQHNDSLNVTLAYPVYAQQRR
Sequence of PI3Kβ (P42338 whole entry, species assumed): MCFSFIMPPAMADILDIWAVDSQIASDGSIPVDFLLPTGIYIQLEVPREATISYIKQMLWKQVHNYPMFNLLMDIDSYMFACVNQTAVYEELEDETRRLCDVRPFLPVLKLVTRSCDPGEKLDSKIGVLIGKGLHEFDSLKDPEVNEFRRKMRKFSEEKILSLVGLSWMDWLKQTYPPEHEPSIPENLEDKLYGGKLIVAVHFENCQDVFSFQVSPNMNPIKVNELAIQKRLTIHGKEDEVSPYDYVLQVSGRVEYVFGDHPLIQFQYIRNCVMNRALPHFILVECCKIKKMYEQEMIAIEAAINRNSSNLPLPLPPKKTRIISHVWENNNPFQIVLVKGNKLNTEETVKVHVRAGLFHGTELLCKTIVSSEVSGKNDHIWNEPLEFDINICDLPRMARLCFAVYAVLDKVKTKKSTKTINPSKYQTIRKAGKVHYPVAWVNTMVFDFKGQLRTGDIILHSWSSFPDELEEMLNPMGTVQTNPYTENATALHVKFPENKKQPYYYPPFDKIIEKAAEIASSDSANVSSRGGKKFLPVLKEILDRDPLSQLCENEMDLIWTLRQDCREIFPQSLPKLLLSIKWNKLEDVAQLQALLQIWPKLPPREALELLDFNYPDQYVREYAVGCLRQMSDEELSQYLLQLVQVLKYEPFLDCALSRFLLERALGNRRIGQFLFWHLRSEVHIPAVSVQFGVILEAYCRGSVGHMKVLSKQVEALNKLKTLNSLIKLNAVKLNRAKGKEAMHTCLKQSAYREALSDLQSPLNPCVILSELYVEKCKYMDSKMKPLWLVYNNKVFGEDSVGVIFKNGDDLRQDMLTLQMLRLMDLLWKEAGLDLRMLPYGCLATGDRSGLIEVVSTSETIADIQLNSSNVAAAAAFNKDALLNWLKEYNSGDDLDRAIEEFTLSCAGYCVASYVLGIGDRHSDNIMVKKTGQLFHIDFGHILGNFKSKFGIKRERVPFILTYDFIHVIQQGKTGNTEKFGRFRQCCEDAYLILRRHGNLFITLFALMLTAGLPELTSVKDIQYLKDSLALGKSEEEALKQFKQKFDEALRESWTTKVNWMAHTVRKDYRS
Sequence of PI3Kβ (P27986 whole entry partner, species assumed): as the sequence (P27986 whole entry partner, species assumed) above
Sequence of PI3Kα (P42336 whole entry, species assumed): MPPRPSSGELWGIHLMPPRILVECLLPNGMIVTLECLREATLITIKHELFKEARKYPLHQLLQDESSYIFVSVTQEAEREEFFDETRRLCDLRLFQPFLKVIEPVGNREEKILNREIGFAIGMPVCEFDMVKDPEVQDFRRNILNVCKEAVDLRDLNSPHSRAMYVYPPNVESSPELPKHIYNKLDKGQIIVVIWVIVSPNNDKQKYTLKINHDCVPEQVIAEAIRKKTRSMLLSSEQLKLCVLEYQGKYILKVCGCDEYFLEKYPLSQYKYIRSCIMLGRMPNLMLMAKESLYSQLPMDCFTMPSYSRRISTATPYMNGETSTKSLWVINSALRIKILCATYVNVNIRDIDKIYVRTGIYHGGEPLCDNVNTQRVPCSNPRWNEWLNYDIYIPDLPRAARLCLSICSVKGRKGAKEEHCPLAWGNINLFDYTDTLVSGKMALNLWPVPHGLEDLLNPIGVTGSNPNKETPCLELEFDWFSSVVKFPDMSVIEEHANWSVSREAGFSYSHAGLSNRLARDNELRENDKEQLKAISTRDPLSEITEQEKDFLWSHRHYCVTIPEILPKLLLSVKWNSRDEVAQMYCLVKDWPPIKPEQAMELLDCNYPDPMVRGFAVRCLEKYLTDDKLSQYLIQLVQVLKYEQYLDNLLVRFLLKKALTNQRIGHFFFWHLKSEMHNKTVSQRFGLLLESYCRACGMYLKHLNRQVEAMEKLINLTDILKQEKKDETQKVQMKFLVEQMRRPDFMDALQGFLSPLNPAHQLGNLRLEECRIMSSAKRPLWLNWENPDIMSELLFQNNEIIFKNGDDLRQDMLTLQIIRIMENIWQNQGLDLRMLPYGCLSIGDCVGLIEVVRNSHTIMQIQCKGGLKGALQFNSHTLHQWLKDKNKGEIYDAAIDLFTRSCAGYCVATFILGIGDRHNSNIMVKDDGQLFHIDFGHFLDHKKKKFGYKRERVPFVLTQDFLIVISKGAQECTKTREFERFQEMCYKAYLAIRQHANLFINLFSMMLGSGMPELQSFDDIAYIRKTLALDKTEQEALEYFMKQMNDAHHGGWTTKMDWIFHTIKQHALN
Sequence of PI3Kα (P27986 whole entry partner, species assumed): as the sequence (P27986 whole entry partner, species assumed) above
Sequence of PI3Kγ (P48736 whole entry, species assumed): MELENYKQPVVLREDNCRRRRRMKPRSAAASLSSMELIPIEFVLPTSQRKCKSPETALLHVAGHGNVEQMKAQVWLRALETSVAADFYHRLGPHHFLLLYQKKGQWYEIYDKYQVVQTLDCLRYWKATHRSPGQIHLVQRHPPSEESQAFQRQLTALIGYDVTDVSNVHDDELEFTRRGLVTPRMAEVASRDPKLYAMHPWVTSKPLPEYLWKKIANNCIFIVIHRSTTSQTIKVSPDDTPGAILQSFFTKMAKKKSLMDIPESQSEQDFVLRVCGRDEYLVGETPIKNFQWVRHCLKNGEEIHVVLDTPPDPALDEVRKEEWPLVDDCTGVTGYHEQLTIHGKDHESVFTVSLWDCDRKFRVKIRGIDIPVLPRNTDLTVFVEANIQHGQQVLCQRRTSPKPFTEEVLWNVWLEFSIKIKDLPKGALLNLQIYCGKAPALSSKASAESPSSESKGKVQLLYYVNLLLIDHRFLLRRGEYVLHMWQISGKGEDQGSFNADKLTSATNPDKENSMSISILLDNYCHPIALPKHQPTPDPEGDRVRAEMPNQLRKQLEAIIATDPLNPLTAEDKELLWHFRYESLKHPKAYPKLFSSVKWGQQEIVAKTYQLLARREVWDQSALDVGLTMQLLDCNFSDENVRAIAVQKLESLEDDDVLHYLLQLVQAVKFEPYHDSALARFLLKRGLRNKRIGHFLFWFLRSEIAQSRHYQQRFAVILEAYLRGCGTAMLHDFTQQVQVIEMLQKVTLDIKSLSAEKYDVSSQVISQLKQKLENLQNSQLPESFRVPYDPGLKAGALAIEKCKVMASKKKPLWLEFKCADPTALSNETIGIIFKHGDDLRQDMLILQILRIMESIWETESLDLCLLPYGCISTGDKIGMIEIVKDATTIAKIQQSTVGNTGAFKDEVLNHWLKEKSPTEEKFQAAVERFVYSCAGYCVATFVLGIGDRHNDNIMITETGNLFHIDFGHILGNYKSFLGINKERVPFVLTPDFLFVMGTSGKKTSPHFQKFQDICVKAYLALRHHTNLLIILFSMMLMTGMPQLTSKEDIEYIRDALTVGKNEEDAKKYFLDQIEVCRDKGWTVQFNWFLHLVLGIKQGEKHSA

For the molecule `CN(C)C1CCN(C(=O)c2ccc(NC(=O)Nc3ccc(-c4nc(N5CCOCC5)nc(N5CCN(C(=O)CCOCCOCCOCCONC(=O)c6ccc(F)c(F)c6Nc6ccc(I)cc6F)CC5)n4)cc3)cc2)CC1` [ST-185], the IC50 on PI3Kα stood at 42.3 ± 4 nM; on PI3Kβ it was 1620 ± 442 nM; at PI3Kγ it was 325 ± 78 nM; at PI3Kδ it was 55.3 ± 3.9 nM; against mTOR, 50.4 ± 4.2 nM.
